Here are results for nine compounds from patent publication US20110218360A1, “PREPARATION OF RASAGILINE AND SALTS THEREOF” (DR. REDDY'S LABORATORIES LTD., priority 2008, published 2011).

Where a name gives a salt, the structure may show the parent alone. Read-outs that look alike come from different tables or passages of the source.

The conditions of data set [1]: particle size distribution after micronisation. An excerpt: (§1) The D10, D50, and D90 values are useful for indicating a particle size distribution. D90 refers to 90 volume percent of the particles having a size smaller than the specified value. Likewise D10 refers to 10 volume percent of the particles having a size smaller than the specified value. D50 refers to 50 volume percent of the particles having a size smaller than the specified value. Methods for determining D10, D50 and D90 include laser diffraction, such as using Malvern equipment (from Malvern Instruments Limited, Malvern, Worcestershire, United Kingdom).

For data set [2] the following is noted: for D10 / D50 / D90: storage at 25±2° C., relative humidity 65±5%; for change of particle size distribution / agglomerate formation on storage: ambient storage, up to 18 days, exposure to atmosphere.
Excerpt: as §1
Rasgiline mesylate (6 g) prepared according to Example 28 is divided into three parts for storage under ambient conditions (temperature=25±2° C.; relative humidity=65±5%): unpackaged (P-I); in closed packages with a nitrogen atmosphere (P-II); and in closed packages with an air atmosphere (P-III). The samples are analyzed for particle size distribution on the 5th and 18th days.

With `C#CCN[C@@H]1CCc2ccccc21` [Example 27, Rasagiline mesylate], in data set [1], the D10 amounted to 0.779 μm, the D50 is given as 2.285 μm and the D90 is on record as 5.517 μm.

As for `C#CCN[C@@H]1CCc2ccccc21` [Example 28, Rasagiline mesylate], in data set [1], the D10 was 0.663 μm, the D50 is 1.592 μm, the D90 worked out at 3.219 μm and the “D[4,3]” value was found to be 1.792 μm.

Turning to `C#CCN[C@@H]1CCc2ccccc21` [Example 30, Rasagiline mesylate], in data set [1], the D10 is on record as 0.761 μm, the D50 was 2.346 μm, the D90 came to 4.981 μm and the “D[4,3]” value was found to be 2.650 μm.

In the case of `C#CCN[C@@H]1CCc2ccccc21` [Example 31, Rasagiline mesylate], in data set [1], the D10 was 2.404 μm, the D50 stood at 146.957 μm and the D90 is reported as 608.570 μm.

Turning to `C#CCN[C@@H]1CCc2ccccc21` [Example 32, Rasagiline mesylate], in data set [1], the D10 turned out to be 0.991 μm, the D50 was 3.093 μm, the D90 is 6.540 μm and the “D[4,3]” value came to 3.496 μm.

In data set [2] (5th day), `C#CCN[C@@H]1CCc2ccccc21` [P-I, Rasgiline mesylate] showed a D10 of 1.319 μm, a D50 of 4.216 μm and a D90 of 151.379 μm.

Turning to `C#CCN[C@@H]1CCc2ccccc21` [P-II, Rasgiline mesylate], the “change of particle size distribution / agglomerate formation on storage” value in data set [2] was “substantially unchanged”. In data set [2] (5th day), the D10 is recorded as 0.892 μm, the D50 is on record as 2.859 μm and the D90 amounted to 5.524 μm. In data set [2] (18th day), this compound displayed a D10 of 1.065 μm, a D50 of 3.227 μm and a D90 of 6.282 μm.

In the case of `C#CCN[C@@H]1CCc2ccccc21` [P-III, Rasgiline mesylate], in data set [2] (5th day), the D10 was 1.182 μm, the D50 is 3.566 μm and the D90 turned out to be 120.731 μm. Moreover, in data set [2] (18th day), the D10 is reported as 1.365 μm, the D50 is 4.171 μm and the D90 is 144.617 μm.

With `C#CCN[C@@H]1CCc2ccccc21` [rasagiline mesylate, (1R)—N-prop-2-ynyl-2,3-dihydro-1H-inden-1-amine methanesulfonate, reference compound], the “change of particle size distribution / agglomerate formation on storage” value in data set [2] (methanesulfonate) is reported as “susceptible to agglomerate formation”.
